Reference: patent US7635561B2, “Methods of diagnosing, prognosing and treating breast cancer” (Temple University of the Commonwealth System of Higher …, priority 2003, dated 2009)

Tests used:
Assay type in all cases: cell-based
[1] = tested on: ER-α in MDA-MB-231 cells; experiment: Effect of 5-Aza-2dC on ER-α RNA (RT-PCR) and protein (Western blot) expression in MDA-MB-231 cells
Protocol: The expression of β-actin protein in each sample was assessed to normalize protein loading.
The breast carcinoma cell lines, MCF-7 (estrogen receptor-positive), MDA-MB-231 (estrogen receptor-negative) and the normal mammary epithelial cell line MCF-12A, were obtained from ATCC (Rockville, Md.) and were cultured according to the manufacturer's protocols. The breast primary tumors were selected on the basis of estrogen receptor status.
Control cells were left untreated. Total RNA was isolated from the treated and control cells, and ER-α RNA was detected by reverse-transcription polymerase chain reaction (RT-PCR). P-actin RNA expression was also determined by RT-PCR in total RNA isolated from treatment and control cells to normalize RNA loading. […] The expression of β-actin protein was assessed to normalize protein loading.

[2] = tested on: pRb2/p130-multimolecular complex on ER-α promoter in MDA-MB-231 cells; experiment: XChIP analysis of recruitment of pRb2/p130-multimolecular complex to the ER-α promoter in 5-Aza-2dC treated MDA-MB-231 cells; conditions: 72 hours treatment, complex contained pRb2/p130, E2F4, SUV39H1, p300, HDAC1
Protocol: Soluble chromatin was immunoprecipitated with specific antibodies recognizing pRb2/p130, E2F4, HDAC1, SUV39H1, DNMT1, and p300. The presence of ER-α promoter sequences in the immunoprecipitates was tested by PCR using specific primers spanning ER-α promoter.
Chromatin immunoprecipitations were performed using a modified procedure of previously published methods (see Orlando et al., 1997, Methods and 11, 205; Keller et al., 2002, J. Biol. Chem., 277, 31430, the entire disclosures of which are herein incorporated by reference), in combination with Western blot and PCR techniques. Approximately 1×10^6 MCF-7 and MDA-MB-231 cells were cross-linked by adding formaldehyde (1% final concentration) directly to the culture medium, and incubating the cells for 8 minutes at 37° C.
After removal of the medium, cells were washed three times on plates with cold phosphate-buffered saline (PBS) containing protease inhibitors (1 mM phenylmethyl-sulfonyl fluoride, 1 μg/ml aprotinin and 1 μg/ml pepstatin A), scraped, and washed again twice in cold PBS. […]
The recruitment of pRb2/p130-multimolecular complexes to ER-α promoter was analyzed in MCF-7 and MDA-MB-231 cells by XChIP. […]

[3] = tested on: pRb2/p130-multimolecular complex on ER-α promoter in MCF-7 cells; experiment: XChIP analysis of recruitment of pRb2/p130-multimolecular complex to the ER-α promoter in 5-Aza-2dC treated MCF-7 cells; conditions: 72 hours treatment
Protocol: After removal of the medium, cells were washed three times on plates with cold phosphate-buffered saline (PBS) containing protease inhibitors (1 mM phenylmethyl-sulfonyl fluoride, 1 μg/ml aprotinin and 1 μg/ml pepstatin A), scraped, and washed again twice in cold PBS. The cell pellet was resuspended in SDS lysis buffer (1% SDS, 10 mM EDTA, 50 mM Tris-HCl, pH 8.1), incubated for 10 minutes on ice, sonicated to shear DNA to lengths between 300 and 500 bp, and centrifuged for 10 minutes at 13,000 rpm at 4° C. Sonicated cell supernatant was diluted in ChIP dilution buffer (0.01% SDS, 1.1% Triton X-100, 1.2 mM EDTA, 16.7 mM Tris-HCL, pH 8.1, 167 mM NaCL), and pre-cleared twice with salmon sperm DNA/protein A agarose at 4° C. for 2 hours. The agarose was pelleted and the supernatant fraction was collected and incubated overnight at 4° C. with the immunoprecipitating antibody.
As negative controls, a “no-antibody” immunoprecipitation was performed by incubating the supernatant fraction with salmon sperm DNA/protein A agarose, and immunoprecipitating the mixture with an irrelevant antibody. […]

Compound: Nc1ncn([C@H]2C[C@H](O)[C@@H](CO)O2)c(=O)n1 [5-Aza-2dC, 5-Aza-2′-deoxycytidine]
- time of maximal ER-α RNA expression ([1]; MDA-MB-231 cells treated with 5-Aza-2dC): 72 h
- expression of ER-α RNA ([1]; MDA-MB-231 cells, 2.5 μM, 24-96 hours, RT-PCR, especially evident at 48-96 h): significantly enhanced
- expression of ER-α protein ([1]; MDA-MB-231 cells, 2.5 μM, 24-96 hours, Western blot, especially evident at 48-96 h): significantly enhanced
- composition of pRb2/p130-multimolecular complex recruited to ER-α promoter [2]: did not contain DNMT1
- composition of pRb2/p130-multimolecular complex recruited onto ER-α promoter [3]: did not influence the composition
